Results taken from ChEMBL document CHEMBL1201862, “PubChem BioAssay data set” (2004).
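Step 1: Grow cells in 96-well plates. Step 2: Expose to compound for 48 hours at 5 concentrations. Step 3: Interpolate endpoints linearly; if unreached, use highest concentration. GI50 = concentration required for 50% inhibition of growth.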 Calls of active or inactive are those of the source. Cut-off read from the data, not from the text of the source: active = GI50 up to about 1.1 µM and inactive = higher.

Assays:
Experiment in all cases: NCI anticancer screen, dose series, 48 h
RPMI-8226 = system: RPMI-8226
LOX IMVI = system: LOX IMVI
DLD-1 = system: DLD-1
MCF7 = system: MCF7
HOP-18 = system: HOP-18
KM12 = system: KM12
LXFL 529 = system: LXFL 529
UO-31 = system: UO-31
Malme-3M = system: Malme-3M
OVCAR-5 = system: OVCAR-5
SNB-19 = system: SNB-19
SK-MEL-5 = system: SK-MEL-5
SK-MEL-2 = system: SK-MEL-2
ACHN = system: ACHN
NCI-H522 = system: NCI-H522
K562 = system: K562
NCI-H23 = system: NCI-H23
M19-MEL = system: M19-MEL
SK-MEL-28 = system: SK-MEL-28
HL-60 = system: HL-60
COLO 205 = system: COLO 205
NCI-H226 = system: NCI-H226
M14 = system: M14
SF-295 = system: SF-295
UACC-62 = system: UACC-62
MDA-MB-231 = system: MDA-MB-231
EKVX = system: EKVX
DMS-273 = system: DMS-273
HOP-92 = system: HOP-92
U-251 = system: U-251
SK-OV-3 = system: SK-OV-3
MDA-MB-435 = system: MDA-MB-435
MOLT-4 = system: MOLT-4
Hs-578T = system: Hs-578T
A498 = system: A498
OVCAR-8 = system: OVCAR-8
HCT-15 = system: HCT-15
T47D = system: T47D
NCI-H460 = system: NCI-H460
SW-620 = system: SW-620
DU-145 = system: DU-145
HCC 2998 = system: HCC 2998
IGROV-1 = system: IGROV-1
SF-539 = system: SF-539
OVCAR-4 = system: OVCAR-4
KM-20L2 = system: KM-20L2
RXF 631 = system: RXF 631
MDA-N = system: MDA-N
CAKI-1 = system: CAKI-1
HOP-62 = system: HOP-62
DMS-114 = system: DMS-114
TK-10 = system: TK-10
OVCAR-3 = system: OVCAR-3
CCRF-CEM = system: CCRF-CEM
786-0 = system: 786-0
BT-549 = system: BT-549
NCI/ADR-RES = system: NCI/ADR-RES
SNB-75 = system: SNB-75
SR = system: SR
A549 = system: A549
SF-268 = system: SF-268
SNB-78 = system: SNB-78
XF498 = system: XF498
UACC-257 = system: UACC-257
RXF 393 = system: RXF 393
HCT-116 = system: HCT-116
HT-29 = system: HT-29
SN12C = system: SN12C
PC-3 = system: PC-3

C[N+](C)(C)CC1CCCC(C[N+](C)(C)C)C1=O (stereo not drawn)
GI50 (RPMI-8226): 0.0579 µM (active) | GI50 (LOX IMVI): 1.23 µM (inactive) | GI50 (DLD-1): 0.105 µM (active) | GI50 (MCF7): 0.506 µM (active) | GI50 (HOP-18): 0.494 µM (active) | GI50 (KM12): 4.66 µM (inactive) | GI50 (LXFL 529): 0.177 µM (active) | GI50 (UO-31): 1.67 µM (inactive) | GI50 (Malme-3M): 0.212 µM (active) | GI50 (OVCAR-5): 3.52 µM (inactive) | GI50 (SNB-19): 19 µM (inactive) | GI50 (SK-MEL-5): 5.16 µM (inactive) | GI50 (SK-MEL-2): 1.9 µM (inactive) | GI50 (ACHN): 0.845 µM (active) | GI50 (NCI-H522): 0.447 µM (active) | GI50 (K562): 0.0724 µM (active) | GI50 (NCI-H23): 2.42 µM (inactive) | GI50 (M19-MEL): 0.879 µM (active) | GI50 (SK-MEL-28): 1.85 µM (inactive) | GI50 (HL-60): 0.272 µM (active) | GI50 (COLO 205): 0.374 µM (active) | GI50 (NCI-H226): 15.6 µM (inactive) | GI50 (M14): 0.879 µM (active) | GI50 (SF-295): 29.7 µM (inactive) | GI50 (UACC-62): 4.66 µM (inactive) | GI50 (MDA-MB-231): 2.01 µM (inactive) | GI50 (EKVX): 1.58 µM (inactive) | GI50 (DMS-273): 3.4 µM (inactive) | GI50 (HOP-92): 0.441 µM (active) | GI50 (U-251): 3.35 µM (inactive) | GI50 (SK-OV-3): 13.7 µM (inactive) | GI50 (MDA-MB-435): 1.8 µM (inactive) | GI50 (MOLT-4): 0.133 µM (active) | GI50 (Hs-578T): 13 µM (inactive) | GI50 (A498): 9.62 µM (inactive) | GI50 (OVCAR-8): 0.869 µM (active) | GI50 (HCT-15): 0.308 µM | GI50 (T47D): 1.09 µM (active) | GI50 (NCI-H460): 16.3 µM (inactive) | GI50 (SW-620): 0.0726 µM (active) | GI50 (DU-145): 5.75 µM (inactive) | GI50 (HCC 2998): 0.513 µM (active) | GI50 (IGROV-1): 5.24 µM (inactive) | GI50 (SF-539): 4.79 µM (inactive) | GI50 (OVCAR-4): 0.641 µM (active) | GI50 (KM-20L2): 0.855 µM (active) | GI50 (RXF 631): 1.96 µM (inactive) | GI50 (MDA-N): 3.49 µM (inactive) | GI50 (CAKI-1): 0.984 µM (active) | GI50 (HOP-62): 23.3 µM (inactive) | GI50 (DMS-114): 1.77 µM (inactive) | GI50 (TK-10): 1.21 µM (inactive) | GI50 (OVCAR-3): 0.703 µM (active) | GI50 (CCRF-CEM): 0.1 µM (active) | GI50 (786-0): 0.661 µM (active) | GI50 (BT-549): 1.58 µM (inactive) | GI50 (NCI/ADR-RES): 2.59 µM (inactive) | GI50 (SNB-75): 4.7 µM (inactive) | GI50 (SR): 0.158 µM (active) | GI50 (A549): 14.8 µM (inactive) | GI50 (SF-268): 7.31 µM (inactive) | GI50 (SNB-78): 2.39 µM (inactive) | GI50 (XF498): 0.411 µM (active) | GI50 (UACC-257): 0.805 µM (active) | GI50 (RXF 393): 1.69 µM (inactive) | GI50 (HCT-116): 0.804 µM (active) | GI50 (HT-29): 1.3 µM (inactive) | GI50 (SN12C): 1.19 µM (inactive) | GI50 (PC-3): 4.61 µM (inactive)

CCCCN(CCCC)CC(C(C)=O)C(c1ccccc1)c1c(O)c2ccccc2oc1=O (stereo not drawn)
GI50 (RPMI-8226): > 100 µM (inactive) | GI50 (LOX IMVI): > 100 µM (inactive) | GI50 (DLD-1): > 100 µM (inactive) | GI50 (HOP-18): > 100 µM (inactive) | GI50 (KM12): > 100 µM (inactive) | GI50 (LXFL 529): > 100 µM (inactive) | GI50 (Malme-3M): > 100 µM (inactive) | GI50 (OVCAR-5): > 100 µM (inactive) | GI50 (SNB-19): > 100 µM (inactive) | GI50 (SK-MEL-5): > 100 µM (inactive) | GI50 (SK-MEL-2): > 100 µM (inactive) | GI50 (ACHN): > 100 µM (inactive) | GI50 (NCI-H522): > 100 µM (inactive) | GI50 (K562): > 100 µM (inactive) | GI50 (NCI-H23): > 100 µM (inactive) | GI50 (M19-MEL): > 100 µM (inactive) | GI50 (SK-MEL-28): > 100 µM (inactive) | GI50 (HL-60): > 100 µM (inactive) | GI50 (COLO 205): > 100 µM (inactive) | GI50 (NCI-H226): > 100 µM (inactive) | GI50 (M14): > 100 µM (inactive) | GI50 (SF-295): > 100 µM (inactive) | GI50 (UACC-62): > 100 µM (inactive) | GI50 (EKVX): > 100 µM (inactive) | GI50 (DMS-273): > 100 µM (inactive) | GI50 (HOP-92): 28 µM (inactive) | GI50 (U-251): > 100 µM (inactive) | GI50 (SK-OV-3): > 100 µM (inactive) | GI50 (MOLT-4): > 100 µM (inactive) | GI50 (OVCAR-8): > 100 µM (inactive) | GI50 (HCT-15): > 100 µM | GI50 (NCI-H460): > 100 µM (inactive) | GI50 (SW-620): > 100 µM (inactive) | GI50 (HCC 2998): > 100 µM (inactive) | GI50 (IGROV-1): > 100 µM (inactive) | GI50 (SF-539): > 100 µM (inactive) | GI50 (OVCAR-4): > 100 µM (inactive) | GI50 (KM-20L2): > 100 µM (inactive) | GI50 (RXF 631): > 100 µM (inactive) | GI50 (CAKI-1): > 100 µM (inactive) | GI50 (HOP-62): > 100 µM (inactive) | GI50 (DMS-114): 91 µM (inactive) | GI50 (TK-10): > 100 µM (inactive) | GI50 (OVCAR-3): > 100 µM (inactive) | GI50 (CCRF-CEM): > 100 µM (inactive) | GI50 (786-0): > 100 µM (inactive) | GI50 (SNB-75): 19.3 µM (inactive) | GI50 (SR): > 100 µM (inactive) | GI50 (A549): > 100 µM (inactive) | GI50 (SF-268): > 100 µM (inactive) | GI50 (SNB-78): > 100 µM (inactive) | GI50 (XF498): > 100 µM (inactive) | GI50 (UACC-257): > 100 µM (inactive) | GI50 (RXF 393): 84.7 µM (inactive) | GI50 (HCT-116): > 100 µM (inactive) | GI50 (HT-29): > 100 µM (inactive) | GI50 (SN12C): > 100 µM (inactive)

Cc1ccc(S(=O)(=O)SCc2ccccc2CSS(=O)(=O)c2ccc(C)cc2)cc1
GI50 (RPMI-8226): 17.5 µM (inactive) | GI50 (LOX IMVI): 15.8 µM (inactive) | GI50 (DLD-1): 15.2 µM (inactive) | GI50 (HOP-18): > 100 µM (inactive) | GI50 (KM12): 59.7 µM (inactive) | GI50 (LXFL 529): 15.5 µM (inactive) | GI50 (UO-31): 78.3 µM (inactive) | GI50 (Malme-3M): 24.2 µM (inactive) | GI50 (OVCAR-5): > 10 µM (inactive) | GI50 (SNB-19): > 100 µM (inactive) | GI50 (SK-MEL-5): 59.4 µM (inactive) | GI50 (ACHN): 29 µM (inactive) | GI50 (NCI-H522): 10.9 µM (inactive) | GI50 (K562): 15.7 µM (inactive) | GI50 (NCI-H23): 18.8 µM (inactive) | GI50 (M19-MEL): 23.5 µM (inactive) | GI50 (SK-MEL-28): 19.1 µM (inactive) | GI50 (HL-60): 12.1 µM (inactive) | GI50 (COLO 205): 17 µM (inactive) | GI50 (NCI-H226): > 100 µM (inactive) | GI50 (M14): 19.1 µM (inactive) | GI50 (SF-295): 79.8 µM (inactive) | GI50 (UACC-62): 15.8 µM (inactive) | GI50 (EKVX): 44.4 µM (inactive) | GI50 (DMS-273): 21.1 µM (inactive) | GI50 (HOP-92): 21.7 µM (inactive) | GI50 (U-251): 28.6 µM (inactive) | GI50 (SK-OV-3): > 100 µM (inactive) | GI50 (MOLT-4): 16 µM (inactive) | GI50 (A498): 91.2 µM (inactive) | GI50 (OVCAR-8): 24.5 µM (inactive) | GI50 (HCT-15): 19.5 µM | GI50 (NCI-H460): 42.2 µM (inactive) | GI50 (SW-620): 17.1 µM (inactive) | GI50 (HCC 2998): 75.2 µM (inactive) | GI50 (IGROV-1): > 100 µM (inactive) | GI50 (SF-539): 19.5 µM (inactive) | GI50 (OVCAR-4): 18.7 µM (inactive) | GI50 (KM-20L2): 78.3 µM (inactive) | GI50 (RXF 631): > 100 µM (inactive) | GI50 (CAKI-1): 22.9 µM (inactive) | GI50 (HOP-62): > 100 µM (inactive) | GI50 (DMS-114): 70.8 µM (inactive) | GI50 (TK-10): > 100 µM (inactive) | GI50 (OVCAR-3): 20.5 µM (inactive) | GI50 (786-0): 18.2 µM (inactive) | GI50 (SNB-75): 57.7 µM (inactive) | GI50 (SR): 16.1 µM (inactive) | GI50 (A549): > 100 µM (inactive) | GI50 (SF-268): 36.6 µM (inactive) | GI50 (SNB-78): 20.1 µM (inactive) | GI50 (XF498): 24.2 µM (inactive) | GI50 (UACC-257): 71.9 µM (inactive) | GI50 (RXF 393): 15.7 µM (inactive) | GI50 (HCT-116): 21.3 µM (inactive) | GI50 (HT-29): 22.7 µM (inactive) | GI50 (SN12C): 17.7 µM (inactive)
